These results are taken from patent publication EP0942896B1, “SUBSTITUTED PHENOLS AND THIOPHENOLS USEFUL AS ANTIOXIDANT AGENTS” (Aventis Pharmaceuticals Inc., priority 1996, dated 1998).

For one series, the system named is VCAM-1. The series is described as follows: Inhibition of VCAM-1 expression in proliferating human umbilical vein endothelial cells (cell ELISA). The conditions noted are these: HUVEC, coincubated with tumor necrosis factor-alpha about 20 to 24 hr, average of three runs, numbers in parentheses represent negative values, read-out: VCAM-1 (% inh. 50 µM). The format is cell-based. The protocol: Plate proliferating human umbilical vein endothelial cells (HUVEC) or human aortic smooth muscle cells (HASMC) from Clonetics (San Diego, CA) onto 96-well plates in 100 µL medium per well at 20,000 cells per cm^2. Maintain the cultures in growth medium (EGM or SMGM2, Clonetics, San Diego, CA) for two days prior to addition of cytokines or drugs. Add cytokines plus or minus compounds for 20 to 24 hours prior to analysis for adhesion molecule levels. Add tumor necrosis factor (Genzyme, Cambridge, MA) to cultures at 500-1000 units/mL to stimulate ICAM-1 expression. Add interleukin-4 (GIBCO-BRL, Gaithersburg, MD) to cultures at 100-200 pg/mL to stimulate VCAM-1 expression. […] Remove the culture medium, and wash the monolayers twice with Hanks buffered saline solution (HBSS) at room temperature. Add the primary antibody (anti-human VCAM-1 from Upstate Biotechnology, Inc., Lake Placid, NY or anti-human ICAM-1 from Immunotech, Inc., Westbrook, ME) to each well (1 µg/mL in HBSS plus 5% newborn calf serum, GIBCO-BRL, Gaithersburg, MD) and incubate at 37°C for 1 hr. Wash the wells twice with HBSS, then add 100 µL of a 1/1000 dilution of goat anti-mouse IgG conjugated to horse radish peroxidase (BioRad, Hercules, CA) in HBSS plus 5% newborn calf serum to each well and incubated for 1 hr at 37°C. […] Measure absorbance at 450 nm with a plate reader. […]

Another series relates to oxidation of lipids. Briefly: Conjugated diene lag phase determination on pooled serum of treated rats. The format is in vivo, Male Sprague-Dawley rats. As to conditions: not normalized, mean of 2 determinations of pooled rat serum (N = 5), diet 0.3%, 4 days. The text has this:
A typical experiment consists of 4-6 groups of rats (N = 5 per group) with I group being a control which receives no MDL compound and the other groups being treated with 0.3% MDL compound. Some of the compounds are either repeated at 0.3% or evaluated again at the lower dose of 0.1%. House Male Sprague-Dawley rats, 50-100 g, (Harlan Laboratories, Indianapolis, IN) in groups of 5, feeding ad libitum water and Purina Rodent chow (#5002) with or without MDL compound as a dietary admixture for 4 days. Make dietary admixtures (0.3%) by mixing 1.2 grams of an MDL compound with 400 grams of Purina rodent chow (#5002). Mix the MDL compound with approximately 50 grams of food using a mortar and pestle. This is added to the remainder of the food and mixed for 3 hours on a rotary mixer. In the morning of day 5, anesthetize non-fasted rats with carbon dioxide, and collect blood by cardiac puncture. Sacrifice rats by cervical dislocation. Record body weights and liver weights in grams. Record food consumption as grams • day^-1 • rat^-1. Deaths are recorded as mortality. Use aliquots of fresh serum for clinical chemistries, thiobarbituric acid reactive substances (TBARS) and conjugated diene measurements. Freeze aliquots of serum (∼ 0.5mL) and whole livers at -20°C for compound and metabolite concentration determination at a later time.
Conjugated diene lag phase is another indicator of the oxidation of lipids. Lipids exposed to Cu^++ form conjugated dienes that absorb ultraviolet light in the range of 230 to 235 nm. The lag phase of diene formation gives an indication of the amount of oxidation of the lipids. A lag phase longer than control samples indicate inhibition of the oxidation. Determine conjugated diene lay phase using a Varian DMS200 spectrophotometer (fitted with a constant temperature, 5 cuvette sample changer) at 30°C. Add twenty (20) µL of pooled serum to cuvettes containing 3.0mL phosphate buffered saline, pH 7.5, and mix. Measure the absorbances of all cuvettes and set the instrument baseline to zero using the lowest absorbing sample. Next, add 100µL of 1 mmol CuSO4 and mix immediately. Record the absorbance of each cuvette at 2 min intervals for a period of 840 min. Capture the data and transfer to a Microsoft EXCEL® spreadsheet where the curves are smoothed and differentials obtained. Determine lag times mathematically as minutes. Pool serum samples (N = 5); data presented are the mean values of 2 determinations. Compare serum samples from treated rats to serum samples from control rats that received no MDL compound.

Series [1] deals with oxidation of serum lipids. Briefly: TBARS assay on serum of treated cholesterol-fed rabbits (CuSO4-initiated oxidation). The format is in vivo, Female New Zealand White rabbits. The conditions noted are these: % of control, thiobarbituric acid reactive substances as nmole MDA, diet 0.4%, 7 days, N = 5. The text has this: Perform five independent experiments in the following manner. Each study has a control group and 1-5 groups treated with MDL compound (N = 5 per group). Feed Female New Zealand White rabbits (Hazelton, ∼ 2.0-2.3 kg) 0.2% cholesterol enriched rabbit chow (Purina #5322) with or without 0.4% MDL compound. Solubilize the MDL compounds in 100% ethanol. Spray the chow with the MDL mixtures and allow to dry overnight in a chemical fume hood. Spray control chow with ethanol. Feed rabbits 100 grams food per day for 7 days (0.6% MDL 103,491 were fed for 14 days); make available water ad libitum. On day 7, bleed (~ 2 mL) rabbits (fasted overnight) from a marginal ear vein. Euthanize rabbits by carbon dioxide overdose. Record the total body and liver weights in grams. Record food as grams • day^-1 · rabbit^-1. Use aliquots of fresh serum for clinical chemistries, lipoprotein cholesterol determination, thiobarbituric acid reactive substances (TBARS) and compound and metabolite concentrations in serum. […]
TBARS are a […] indication of the oxidation of lipids in a sample. […] Upon incubation with thiobarbituric acid, the absorbance of the aldehydes can be detected at 530-540 nm. […] Measure absorbances at 540 nm using a Biotek model EL311 microplate reader. The nmoles of MDA produced are calculated from a standard curve of 0 to 10 nmoles of MDA prepared from malonaldehyde bis(dimethylacetal). […]

Series [2] is described as follows: Animal parameters (food, body weight, liver weight/body weight) in cholesterol-fed rabbits. Format: in vivo, Female New Zealand White rabbits. The conditions noted are these: % of control, diet 0.4%, 7 days, 0.2% cholesterol chow, N = 5. The text has this: Perform five independent experiments in the following manner. Each study has a control group and 1-5 groups treated with MDL compound (N = 5 per group). Feed Female New Zealand White rabbits (Hazelton, ∼ 2.0-2.3 kg) 0.2% cholesterol enriched rabbit chow (Purina #5322) with or without 0.4% MDL compound. Solubilize the MDL compounds in 100% ethanol. Spray the chow with the MDL mixtures and allow to dry overnight in a chemical fume hood. Spray control chow with ethanol. Feed rabbits 100 grams food per day for 7 days (0.6% MDL 103,491 were fed for 14 days); make available water ad libitum. On day 7, bleed (~ 2 mL) rabbits (fasted overnight) from a marginal ear vein. Euthanize rabbits by carbon dioxide overdose. Record the total body and liver weights in grams. Record food as grams • day^-1 · rabbit^-1. Use aliquots of fresh serum for clinical chemistries, lipoprotein cholesterol determination, thiobarbituric acid reactive substances (TBARS) and compound and metabolite concentrations in serum. Freeze livers (∼ 5 gram aliquots) at -20°C for compound and metabolite concentration determination at a later time.

As for `CC(C)CCCC(C)CCOc1ccc(O)c(C(C)(C)C)c1` (centres unmarked) [MDL 104,191, Phenol, 2-(1,1-dimethylethyl)-4-[(3,7-dimethyloctyl)oxy]-], the inhibition at 50 µM in the series with VCAM-1 was 34.3%. For the same molecule, in the series on oxidation of lipids, the “CONJ. DIENE” value came out at 708 min.
`CC(C)=CCC[C@H](C)CCOc1cc(C(C)(C)C)c(O)c(C(C)(C)C)c1` [MDL 103,294, Phenol, 2,6-bis(1,1-dimethylethyl)-4-[(3,7-dimethyl-6-octenyl)oxy]-, (S)-] registered a TBARS in series [1] of 35%. This molecule had a food in series [2] (grams eaten per day per rabbit) of 103%. Moreover, the lw/bw in series [2] (liver weight / body weight) is listed as 105%. Besides, in series [2] (weight in grams), the body wt. is reported as 100%.
Turning to `CC(C)=CCCC(C)CCSc1cc(C(C)(C)C)c(O)c(C(C)(C)C)c1` (centres unmarked) [MDL 103,960, Phenol, 2,6-bis(1,1-dimethylethyl)-4-[(3,7-dimethyl-6-octenyl)thio]-], the inhibition at 50 µM with VCAM-1 came out at 25.7%. Also, in the series with oxidation of lipids, the “CONJ. DIENE” value was found to be 363 min.
